Laboratory results reported in patent publication US9861592B2, “Methods and compositions for treating neurodegenerative diseases” (Golden Biotechnology Corporation, priority 2012, dated 2018).
In brackets after ≈: the same amount, converted by molar mass.

Tested on: PC12 cells
Experiment: CCK-8 cell viability assay, titration of Compound 1 in NGF-induced PC12 cells
Type: cell-based
Conditions: Rattus norvegicus, PC-12, 48 h
Procedure: Rat pheochromocytoma PC12 cells, purchased from Bioresource Collection and Research Center (BCRC), were cultured in RPMI1640 medium (Gibco, MD) containing 10% fetal calf serum, 5% horse donor serum, 100 μg/ml streptomycin, 100 units/ml penicillin, 2 mM L-glutamine, and maintained in humidified incubator at 37° C. with 5% CO2. Cells were transferred twice a week. Experiments were carried out in 96-well plates coated with poly-D-lysine (1 mg/mL) to assist cell adhesion. PC12 cells were grown on medium with mouse submaxillary-gland nerve growth factor (NGF 2.5S, 100 ng/ml; Invitrogen, Carlsbad, Calif.) for 48 h to induce differentiation into neuron-like cells before all experiments conducted in this study.
To optimize the exemplary Compound 1 concentration for NGF-induced PC12 neural model, titration experiments were performed to determine the IC50 values of Compound 1 in PC12. PC12 Cells (1×10^4 cells) were incubated with various concentrations of Compound 1 (0.001, 0.01, 0.1, 1, 10, 100 μg/ml in a 10% serum-supplemented medium; 0.3, 1, 3, 10, 30, 100 μg/ml in serum-free medium) for 48 h.
The viability of cells was measured using the Cell Counting Kit-8 (CCK-8, Enzo, Life Sciences). A highly water-soluble tetrazolium salt, WST-8, is reduced by dehydrogenases in cells to give a yellow-colored product (formazan), which is soluble in the culture medium. The amount of the fomazan dye generated by the activity of dehydrogenases in cells is directly proportional to the number of living cells. After treatments, the CCK-8 solution was added to each well of plates and incubates the plate for 4 h in the incubator. The concentration of the formazan product was determined spectrophotometrically at an absorbance wavelength 450 nm and cell viability was expressed as a percentage of the corresponding control.

COC1=C(OC)C(O)C(C/C=C(\C)CC/C=C(\C)CCC=C(C)C)C(C)C1=O (stereo not drawn) [Compound 1, 4-hydroxy-2,3-dimethoxy-6-methyl-5-(3,7,11-trimethyldodeca-2,6,10-trienyl)cyclohex-2-enone] was tested, and the IC50 (PC12, 10% serum supplemented media, unit as printed in b23) was 58 µg/mL (≈ 148 µM), the IC50 (PC12, 10% serum supplemented media, unit as printed in b151) was 58 µg/mL (≈ 148 µM) and the IC50 (PC12, serum-free media) was 13.4 µg/mL (≈ 34.3 µM).
